# Laboratory results: patent publication US11648284B2, “Composition for ameliorating psoriasis symptoms containing extract of Sphallerocarpus gracilis” (KOREA INSTITUTE OF SCIENCE AND TECHNOLOGY, priority 2020, dated 2023)
# Legend:
# [1] = test system: psoriasis caused by imiquimod; experiment: Epithelial thickness of back skin by H&E staining in imiquimod psoriasis animal model; type: in vivo, Balb/c mice; details: after treatment for a week, skin application, compared to the IMQ group
# From the text: (§1) 6-week-old male Balb/c mice (Kangwon Life Science, Korea) were purchased and acclimated for a week, and psoriasis was induced using 5% imiquimod (Donga ST, Korea). FIG. 1 is a schematic experimental scheme of an animal model. Anti-psoriatic efficacy was investigated using a total of 20 animal models including 5 animals per experimental group.
# (§2) In order to determine the effect of the extract of Sphallerocarpus gracilis on psoriasis caused by imiquimod, the experimental animals of Section 2-1 were used. The following four experimental groups were constructed and five animals were randomly assigned to each group:
# Normal control without any treatment (Non-treatment control, NTC);
# Disease group with psoriasis induced using imiquimod by the method of Section 2-1 (IMQ);
# Group to the skin of which dexamethasone was applied every day after induction of psoriasis (Positive control, DEX); and
# Group to the skin of which the extract of Sphallerocarpus gracilis of Example 1 was applied (Experimental group, M215) […]
# After treatment for a week, the back skin tissue was removed from each animal, and then a paraffin block was prepared. The paraffin block was cut to 5 μm to prepare a slide sample, and then the change in the thickness of the skin tissue was measured through H&E staining.
# [2] = test system: filaggrin, loricrin, keratin 1 and keratin 14; experiment: Immunofluorescence of biomarkers for epithelial tissue damage in back skin of psoriasis animal model; type: in vivo, Balb/c mice; details: after treatment for a week, IMQ group decreased compared to non-treatment group
# From the text: as §1, §2
# The experiment was conducted by inducing psoriasis with IMQ cream and then performing daily application in the amount shown in FIG. 2 to the experimental group and the DEX group. FIG. 3 is an image showing the treatment group for 7 days compared to the psoriasis-induced model as the animal experimental model.
# After treatment for a week, back skin tissue was removed from each animal and a paraffin block was then prepared. A paraffin block was cut to 5 μm to prepare a slide sample, and then the change in biomarkers for epithelial tissue damage due to psoriasis was measured through immunofluorescence.
smiles,measurement,setting,value
"C[C@@H]1C[C@H]2[C@@H]3CCC4=CC(=O)C=C[C@]4(C)[C@@]3(F)[C@@H](O)C[C@]2(C)[C@@]1(O)C(=O)CO [DEX, dexamethasone]",thickness of the epithelial layer,[1],decreased thickness
same,expression level of filaggrin,[2],increased
same,expression level of keratin 1,[2],increased
same,expression level of keratin 14,[2],increased
same,expression level of loricrin,[2],increased
